Several values for one entry are separate records, joined by “and”; a condition that tells them apart may be missing. Equal values may be shown once.
Test system: thromboxane A2 challenged PAH-minipig
Test: Haemodynamics in the anesthetized thromboxane challenged minipig, intratracheal dry powder (PAP, BP)
Type: in vivo, Göttingen Minipigs
Details: for BP (absolute values) / PAP (absolute values): lactose vehicle first, test powder 1.5 mg/4 kg i.t. @90 min, each animal (n=3); for % changes vs. baseline on PAP: each animal
Method: Healthy Göttingen Minipigs® Ellegaard (Ellegaard, Denmark) of both sexes and having a weight of 2-6 kg were used. The animals were sedated by i.m. administration of about 25 mg/kg ketamine and about 10 mg/kg azaperone. Anaesthesia was initiated by i.v. administration of about 2 mg/kg ketamine and about 0.3 mg/kg midazolam. Maintenance of anaesthesia was by i.v. administration of about 7.5-30 mg/kg/h ketamine and about 1-4 mg/kg/h midazolam (rate of infusion 1-4 ml/kg/h) and about 150 μg/kg/h pancuronium bromide (for example Pancuronium-Actavis). After intubation, the animals were ventilated by the ventilator at a constant respiratory volume (10-12 ml/kg, 35 breaths/min; Avea®, Viasys Healthcare, USA, or Engström Carestation, GE Healthcare, Freiburg, Germany) such that an end-tidal CO2 concentration of about 5% was achieved. Ventilation was performed with room air, enriched with about 40% oxygen (normoxia). For the measurement of the haemodynamic parameters such as pulmonary arterial pressure (PAP), blood pressure (BP) and heart rate (HR), catheters were inserted into the carotid artery to measure the blood pressure, and a Swan-Ganz® catheter was introduced in a flow-directed manner via the jugular vein into the pulmonary artery. The haemodynamic signals were recorded and evaluated by means of pressure transducers (Combitransducer, B. Braun, Melsungen, Germany)/amplifiers and Ponemah® as data acquisition software.
As reference pure Lactose vehicle was applied in the beginning of each experiment.

[1] = time 0 min, 375 μg/kg i.t., sesquihydrate
[2] = time 10 min, 375 μg/kg i.t., sesquihydrate
[3] = time 20 min, 375 μg/kg i.t., sesquihydrate
[4] = time 20 min, listed as ex. 6e, sesquihydrate
[5] = time 30 min, listed as ex. 6e, sesquihydrate
[6] = time 40 min, listed as ex. 6e, sesquihydrate
[7] = time 50 min, 375 μg/kg i.t., sesquihydrate
[8] = time 50 min, listed as ex. 6e, sesquihydrate
[9] = time 60 min, 375 μg/kg i.t., sesquihydrate
[10] = time 60 min, listed as ex. 6e, sesquihydrate
[11] = time 70 min, 375 μg/kg i.t., sesquihydrate
[12] = time 70 min, listed as ex. 6e, sesquihydrate
[13] = time 80 min, 375 μg/kg i.t., sesquihydrate
[14] = time 80 min, listed as ex. 6e, sesquihydrate
[15] = time 90 min, 375 μg/kg i.t., sesquihydrate
[16] = time 90 min, listed as ex. 6e, sesquihydrate
[17] = time 100 min, 375 μg/kg i.t., sesquihydrate
[18] = time 100 min, listed as ex. 6e, sesquihydrate
[19] = time 110 min, 375 μg/kg i.t., sesquihydrate
[20] = time 110 min, listed as ex. 6e, sesquihydrate
[21] = time 120 min, 375 μg/kg i.t., sesquihydrate
[22] = time 120 min, listed as ex. 6e, sesquihydrate
[23] = time 130 min, listed as ex. 6e, sesquihydrate
[24] = time 140 min, listed as ex. 6e, sesquihydrate

## O.O.O.O=C(O)c1ccc(CCN(CCc2ccccc2OCc2ccc(-c3ccc(C(F)(F)F)cc3)cc2Cl)[C@H]2CCCc3nc(C(=O)O)ccc32)cc1.O=C(O)c1ccc(CCN(CCc2ccccc2OCc2ccc(-c3ccc(C(F)(F)F)cc3)cc2Cl)[C@H]2CCCc3nc(C(=O)O)ccc32)cc1 [example 6e, (5S)—{[2-(4-Carboxyphenyl)ethyl][2-(2-{[3-chloro-4′-(trifluoromethyl)biphenyl-4-yl]methoxy}phenyl)-ethyl]amino}-5,6,7,8-tetrahydroquinoline-2-carboxylic acid sesquihydrate]
375 μg/kg i.t., within the last hour of the observation interval
  systemic blood pressure: slightly affected
i.t. dry powder
  maximal effect achievable in this animal model: maximal effect
i.t. dry powder, 1.5 mg/4 kg animal weight
  time to maximum effect after i.t. application: approximately 80 min
i.t. via PennCentury dry powder insufflator, 1.5 mg/4 kg animal weight
  effect on PAP and BP: decrease of PAP without any effects on BP
Micronized hydrates, 1.5 mg/4 kg (=375 μg/kg) i.t.
  efficacy with regard to PAP reduction as well as systemic BP reduction: comparable efficacy
[1]
  BP (mean): 99 mmHg and 104 mmHg and 117 mmHg
  PAP(mean): 41.9 mmHg and 37.1 mmHg and 37.5 mmHg
Time 10 min, 375 μg/kg i.t.
  BP (mean): 99 mmHg
[2]
  BP (mean): 108 mmHg and 119 mmHg
  PAP(mean): 42.0 mmHg and 37.3 mmHg and 38.6 mmHg
Time 20 min, 375 μg/kg i.t.
  BP (mean): 99 mmHg
[3]
  BP (mean): 109 mmHg and 118 mmHg
  PAP(mean): 41.4 mmHg
Time 20 min
  BP (absolute values): 99 mmHg
[4]
  BP (absolute values): 107 mmHg and 119 mmHg
  PAP (absolute values): 42.0 mmHg and 36.4 mmHg and 37.5 mmHg
Time 30 min, 375 μg/kg i.t.
  BP (mean): 100 mmHg
Time 30 min, 375 μg/kg i.t., sesquihydrate
  BP (mean): 107 mmHg and 118 mmHg
[5]
  BP (absolute values): 99 mmHg and 104 mmHg and 117 mmHg
  PAP (absolute values): 41.9 mmHg and 37.1 mmHg and 37.5 mmHg
Time 40 min, 375 μg/kg i.t.
  BP (mean): 100 mmHg
Time 40 min
  BP (absolute values): 99 mmHg
[6]
  BP (absolute values): 108 mmHg and 119 mmHg
  PAP (absolute values): 42.0 mmHg and 37.3 mmHg and 38.6 mmHg
[7]
  BP, % changes vs. prevalues: 101.4% and 98.5% and 100.3%
  PAP, % changes vs. prevalues: 98.3% and 96.2% and 101.2%
Time 50 min
  BP (absolute values): 99 mmHg
[8]
  BP (absolute values): 109 mmHg and 118 mmHg
  PAP (absolute values): 41.4 mmHg and 37.4 mmHg and 39.8 mmHg
[9]
  BP, % changes vs. prevalues: 102.5% and 100.3% and 99.4%
  PAP, % changes vs. prevalues: 97.2% and 99.6% and 101.1%
Time 60 min
  BP (absolute values): 100 mmHg
[10]
  BP (absolute values): 107 mmHg and 118 mmHg
  PAP (absolute values): 41.4 mmHg and 36.8 mmHg and 41.2 mmHg
[11]
  BP, % changes vs. prevalues: 99.4% and 96.0% and 98.6%
  PAP, % changes vs. prevalues: 97.8% and 97.5% and 98.5%
Time 70 min
  BP (absolute values): 100 mmHg
[12]
  BP (absolute values): 109 mmHg and 118 mmHg
  PAP (absolute values): 41.0 mmHg and 37.4 mmHg and 41.3 mmHg
Time 80 min (baseline = 100.0), i.t. dry powder
  % changes vs. baseline on PAP: 100.0%
[13]
  BP, % changes vs. prevalues: 101.4% and 96.8% and 97.7%
  PAP, % changes vs. prevalues: 87.8% and 94.9% and 87.9%
[14]
  BP (absolute values): 101 mmHg and 114 mmHg and 119 mmHg
  PAP (absolute values): 40.9 mmHg and 38.1 mmHg and 40.8 mmHg
[15]
  BP, % changes vs. prevalues: 101.4% and 98.5% and 96.9%
  PAP, % changes vs. prevalues: 82.5% and 92.0% and 76.6%
Time 90 min, baseline 100.0 at 80 min, i.t. dry powder, sesquihydrate
  % changes vs. baseline on PAP: 98.9% and 103.6% and 99.8%
Time 90 min
  BP (absolute values): 102 mmHg
[16]
  BP (absolute values): 116 mmHg and 118 mmHg
  PAP (absolute values): 40.4 mmHg and 39.5 mmHg and 40.7 mmHg
[17]
  BP, % changes vs. prevalues: 101.4% and 98.5% and 96.9%
  PAP, % changes vs. prevalues: 77.6% and 90.1% and 71.1%
Time 100 min, baseline 100.0 at 80 min, i.t. dry powder, sesquihydrate
  % changes vs. baseline on PAP: 99.5% and 101.4% and 97.3%
Time 100 min
  BP (absolute values): 99 mmHg
[18]
  BP (absolute values): 111 mmHg and 117 mmHg
  PAP (absolute values): 40.7 mmHg and 38.7 mmHg and 39.6 mmHg
[19]
  BP, % changes vs. prevalues: 99.4% and 103.7% and 96.1%
  PAP, % changes vs. prevalues: 74.0% and 88.3% and 68.4%
Time 110 min, baseline 100.0 at 80 min, i.t. dry powder, sesquihydrate
  % changes vs. baseline on PAP: 89.3% and 98.7% and 86.8%
[20]
  BP (absolute values): 101 mmHg and 112 mmHg and 116 mmHg
  PAP (absolute values): 36.5 mmHg and 37.6 mmHg and 35.4 mmHg
[21]
  BP, % changes vs. prevalues: 99.4%
  PAP, % changes vs. prevalues: 72.8% and 73.1% and 66.2%
Time 120 min, baseline 100.0 at 80 min, i.t. dry powder, sesquihydrate
  % changes vs. baseline on PAP: 84.0% and 95.6% and 75.7%
[22]
  BP (absolute values): 101 mmHg and 114 mmHg and 115 mmHg
  PAP (absolute values): 34.3 mmHg and 36.4 mmHg and 30.8 mmHg
Time 130 min, 375 μg/kg i.t., sesquihydrate
  PAP, % changes vs. prevalues: 69.8%
Time 130 min, baseline 100.0 at 80 min, i.t. dry powder, sesquihydrate
  % changes vs. baseline on PAP: 78.9% and 93.7% and 70.2%
[23]
  BP (absolute values): 101 mmHg and 114 mmHg and 115 mmHg
  PAP (absolute values): 32.3 mmHg and 35.7 mmHg and 28.6 mmHg
Time 140 min, baseline 100.0 at 80 min, i.t. dry powder, sesquihydrate
  % changes vs. baseline on PAP: 75.2% and 91.8% and 67.5%
[24]
  BP (absolute values): 99 mmHg and 120 mmHg and 114 mmHg
  PAP (absolute values): 30.8 mmHg and 35.0 mmHg and 27.5 mmHg
Time 150 min, baseline 100.0 at 80 min, i.t. dry powder, sesquihydrate
  % changes vs. baseline on PAP: 74.0% and 76.0% and 65.4%
